Source: ChEMBL document CHEMBL3400000, “The discovery of potent agonists for GPR88, an orphan GPCR, for the potential treatment of CNS disorders” (Bioorg Med Chem Lett, 2015)

target: G protein-coupled receptor 88 (Homo sapiens, UniProt Q9GZN0); test: Agonist activity at GPR88 (unknown origin) transfected into cells assessed as cAMP accumulation by HTRF assay; assay type: functional
Sequence (Q9GZN0 whole entry): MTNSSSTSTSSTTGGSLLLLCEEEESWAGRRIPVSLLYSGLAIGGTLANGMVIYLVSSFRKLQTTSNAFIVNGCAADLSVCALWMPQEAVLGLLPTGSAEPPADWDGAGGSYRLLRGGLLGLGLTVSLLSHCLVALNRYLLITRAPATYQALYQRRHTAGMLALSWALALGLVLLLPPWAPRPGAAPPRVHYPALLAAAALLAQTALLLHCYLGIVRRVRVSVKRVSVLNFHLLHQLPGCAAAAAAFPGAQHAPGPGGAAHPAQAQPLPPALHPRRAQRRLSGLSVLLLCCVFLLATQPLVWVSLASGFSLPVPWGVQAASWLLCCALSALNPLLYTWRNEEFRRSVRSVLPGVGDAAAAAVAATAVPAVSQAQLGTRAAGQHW

Row | EC50 | Structure (SMILES)
1 | > 25000 nM | CC[C@H](C)[C@H](N)CN(C(=O)[C@@H]1C[C@H]1c1ccc(OC)cc1)c1ccc(-c2ccccc2)cc1
2 | 2200 nM | CC[C@H](C)[C@H](N)CN(C(=O)[C@@H]1C[C@H]1c1cccc(Cl)c1)c1ccc(-c2ccccc2)cc1
3 | > 25000 nM | CC[C@H](C)[C@H](N)CN(C(=O)[C@@H]1C[C@H]1c1ccccc1Cl)c1ccc(-c2ccccc2)cc1
4 | 3000 nM | CC[C@H](C)[C@H](N)CN(C(=O)[C@@H]1C[C@H]1c1cccc(OC)c1)c1ccc(-c2ccccc2)cc1
5 | 600 nM | CC[C@H](C)[C@H](N)CN(C(=O)[C@@H]1C[C@H]1c1ccc(F)cc1)c1ccc(-c2ccccc2)cc1
6 | 560 nM | CC[C@H](C)[C@H](N)CN(C(=O)[C@@H]1C[C@H]1c1cccc(F)c1)c1ccc(-c2ccccc2)cc1
7 | 650 nM | CC[C@H](C)[C@H](N)CN(C(=O)[C@@H]1C[C@H]1c1ccccc1F)c1ccc(-c2ccccc2)cc1
8 | 1200 nM | CC[C@H](C)[C@H](N)CN(C(=O)[C@@H]1C[C@H]1c1cccc(C)c1)c1ccc(-c2ccccc2)cc1
9 | > 25000 nM | CC[C@H](C)[C@H](N)CN(C(=O)[C@@H]1C[C@H]1c1ccc(C#N)cc1)c1ccc(-c2ccccc2)cc1
10 | 1600 nM | CC[C@H](C)[C@H](N)CN(C(=O)[C@@H]1C[C@H]1c1cccc(C#N)c1)c1ccc(-c2ccccc2)cc1
11 | > 25000 nM | CC[C@H](C)[C@H](N)CN(C(=O)[C@@H]1C[C@H]1C1CCCCC1)c1ccc(-c2ccccc2)cc1
12 | 770 nM | CC[C@H](C)[C@H](N)CN(C(=O)[C@@H]1C[C@H]1c1cc(F)ccc1F)c1ccc(-c2ccccc2)cc1
13 | 960 nM | CC[C@H](C)[C@H](N)CN(C(=O)[C@@H]1C[C@H]1c1cc(F)cc(F)c1)c1ccc(-c2ccccc2)cc1
14 | 720 nM | CC[C@H](C)[C@H](N)CN(C(=O)[C@@H]1C[C@H]1c1ccc(F)c(F)c1)c1ccc(-c2ccccc2)cc1
15 | 1300 nM | CC[C@H](C)[C@H](N)CN(C(=O)[C@@H]1C[C@H]1c1ccc(F)cc1F)c1ccc(-c2ccccc2)cc1
16 | 11000 nM | CC[C@H](C)[C@H](N)CN(C(=O)[C@@H]1C[C@H]1c1c(F)cccc1F)c1ccc(-c2ccccc2)cc1
17 | 130 nM | CC[C@H](C)[C@H](N)CN(C(=O)[C@@H]1C[C@H]1c1ccccn1)c1ccc(-c2ccccc2)cc1
18 | 1500 nM | CC[C@H](C)[C@H](N)CN(C(=O)[C@@H]1C[C@H]1c1cccnc1)c1ccc(-c2ccccc2)cc1
19 | 1500 nM | CC[C@H](C)[C@H](N)CN(C(=O)[C@@H]1C[C@H]1c1ccncc1)c1ccc(-c2ccccc2)cc1
20 | 130 nM | CC[C@H](C)[C@H](N)CN(C(=O)[C@@H]1C[C@H]1c1ncccn1)c1ccc(-c2ccccc2)cc1
21 | 19000 nM | CC[C@H](C)[C@H](N)CN(C(=O)[C@@H]1C[C@H]1c1cncnc1)c1ccc(-c2ccccc2)cc1
22 | 210 nM | CC[C@H](C)[C@H](N)CN(C(=O)[C@@H]1C[C@H]1c1nccs1)c1ccc(-c2ccccc2)cc1
23 | 360 nM | CC[C@H](C)[C@H](N)CN(C(=O)[C@@H]1C[C@H]1c1cccs1)c1ccc(-c2ccccc2)cc1
24 | 450 nM | CC[C@H](C)[C@H](N)CN(C(=O)[C@@H]1C[C@H]1c1ccsc1)c1ccc(-c2ccccc2)cc1
25 | 580 nM | CC[C@H](C)[C@H](N)CN(C(=O)[C@@H]1C[C@H]1c1ccoc1)c1ccc(-c2ccccc2)cc1
26 | 730 nM | CC[C@H](C)[C@H](N)CN(C(=O)[C@@H]1C[C@H]1c1nc(C)cs1)c1ccc(-c2ccccc2)cc1

Row | EC50 | Structure (SMILES)
27 | 1300 nM | CC[C@H](C)[C@H](N)CN(C(=O)[C@@H]1C[C@H]1c1ncc(C)s1)c1ccc(-c2ccccc2)cc1
28 | 3600 nM | CC[C@H](C)[C@H](N)CN(C(=O)[C@@H]1C[C@H]1c1nc(C)c(C)s1)c1ccc(-c2ccccc2)cc1
29 | 1500 nM | CC[C@H](C)[C@H](N)CN(C(=O)[C@@H]1C[C@H]1c1csc(C)n1)c1ccc(-c2ccccc2)cc1
30 | 23000 nM | CC(C)C[C@H](N)CN(C(=O)[C@@H]1C[C@H]1c1ccccc1)c1cccc(-c2ccccc2)c1
31 | 6200 nM | CC(C)C[C@H](N)CN(C(=O)[C@@H]1C[C@H]1c1ccccc1)c1ccccc1-c1ccccc1
32 | 10000 nM | CC(C)C[C@H](N)CN(C(=O)[C@@H]1C[C@H]1c1ccccc1)c1ccc(-c2cccnc2)cc1
33 | 13000 nM | CC(C)C[C@H](N)CN(C(=O)[C@@H]1C[C@H]1c1ccccc1)c1ccc(-c2ccncc2)cc1
34 | 1200 nM | CC(C)C[C@H](N)CN(C(=O)[C@@H]1C[C@H]1c1ccccc1)c1ccc(-c2ccsc2)cc1
35 | 1500 nM | CC(C)C[C@H](N)CN(C(=O)[C@@H]1C[C@H]1c1ccccc1)c1ccc(-c2cccs2)cc1
36 | 2000 nM | CC(C)C[C@H](N)CN(C(=O)[C@@H]1C[C@H]1c1ccccc1)c1ccc(-c2ccoc2)cc1
37 | 1200 nM | CC(C)C[C@H](N)CN(C(=O)[C@@H]1C[C@H]1c1ccccc1)c1ccc(C2=CCCC2)cc1
38 | 2100 nM | CC(C)C[C@H](N)CN(C(=O)[C@@H]1C[C@H]1c1ccccc1)c1ccc(C2=CCCCCC2)cc1
39 | 1200 nM | CC(C)C[C@H](N)CN(C(=O)[C@@H]1C[C@H]1c1ccccc1)c1ccc(C2=CCCCC2)cc1
40 | 360 nM | Cc1ccc(-c2ccc(N(C[C@@H](N)CC(C)C)C(=O)[C@@H]3C[C@H]3c3ccccc3)cc2)cc1
41 | 1200 nM | Cc1cccc(-c2ccc(N(C[C@@H](N)CC(C)C)C(=O)[C@@H]3C[C@H]3c3ccccc3)cc2)c1
42 | 3400 nM | Cc1ccccc1-c1ccc(N(C[C@@H](N)CC(C)C)C(=O)[C@@H]2C[C@H]2c2ccccc2)cc1
43 | 330 nM | COc1ccc(-c2ccc(N(C[C@@H](N)CC(C)C)C(=O)[C@@H]3C[C@H]3c3ccccc3)cc2)cc1
44 | 1100 nM | COc1cccc(-c2ccc(N(C[C@@H](N)CC(C)C)C(=O)[C@@H]3C[C@H]3c3ccccc3)cc2)c1
45 | 3200 nM | COc1ccccc1-c1ccc(N(C[C@@H](N)CC(C)C)C(=O)[C@@H]2C[C@H]2c2ccccc2)cc1
46 | 900 nM | CC(C)C[C@H](N)CN(C(=O)[C@@H]1C[C@H]1c1ccccc1)c1ccc(-c2ccc(F)cc2)cc1
47 | 2100 nM | CC(C)C[C@H](N)CN(C(=O)[C@@H]1C[C@H]1c1ccccc1)c1ccc(-c2cccc(F)c2)cc1
48 | 1600 nM | CC(C)C[C@H](N)CN(C(=O)[C@@H]1C[C@H]1c1ccccc1)c1ccc(-c2ccccc2F)cc1
49 | 670 nM | CC(C)C[C@H](N)CN(C(=O)[C@@H]1C[C@H]1c1ccccc1)c1ccc(-c2ccc(C#N)cc2)cc1
50 | 4500 nM | CC(C)C[C@H](N)CN(C(=O)[C@@H]1C[C@H]1c1ccccc1)c1ccc(-c2cccc(C#N)c2)cc1
51 | 640 nM | CC(C)C[C@H](N)CN(C(=O)[C@@H]1C[C@H]1c1ccccc1)c1ccc(-c2ccc(Cl)cc2)cc1
52 | 3800 nM | CC(C)C[C@H](N)CN(C(=O)[C@@H]1C[C@H]1c1ccccc1)c1ccc(-c2ccccc2Cl)cc1

Row | EC50 | Structure (SMILES)
53 | 230 nM | CC[C@H](C)[C@H](N)CN(C(=O)[C@@H]1C[C@H]1c1ccccc1)c1ccc(-c2ccccc2)cc1
54 | 44 nM | CCc1ccc(-c2ccc(N(C[C@@H](N)[C@@H](C)CC)C(=O)[C@@H]3C[C@H]3c3ccccc3)cc2)cc1
55 | 61 nM | CCCc1ccc(-c2ccc(N(C[C@@H](N)[C@@H](C)CC)C(=O)[C@@H]3C[C@H]3c3ccccc3)cc2)cc1
56 | 750 nM | CC[C@H](C)[C@H](N)CN(C(=O)[C@@H]1C[C@H]1c1ccccc1)c1ccc(-c2ccc(C(C)(C)C)cc2)cc1
57 | 340 nM | CC[C@H](C)[C@H](N)CN(C(=O)[C@@H]1C[C@H]1c1ccccc1)c1ccc(-c2ccc(C(F)(F)F)cc2)cc1
58 | 72 nM | CC[C@H](C)[C@H](N)CN(C(=O)[C@@H]1C[C@H]1c1ccccc1)c1ccc(-c2ccc(OC(C)C)cc2)cc1
59 | 90 nM | CCOc1ccc(-c2ccc(N(C[C@@H](N)[C@@H](C)CC)C(=O)[C@@H]3C[C@H]3c3ccccc3)cc2)cc1
60 | 120 nM | CC[C@H](C)[C@H](N)CN(C(=O)[C@@H]1C[C@H]1c1ccccc1)c1ccc(-c2ccc(OC)cc2)cc1
61 | 94 nM | CC[C@H](C)[C@H](N)CN(C(=O)[C@@H]1C[C@H]1c1ccccc1)c1ccc(-c2ccc(Oc3ccccc3)cc2)cc1
62 | 170 nM | CC[C@H](C)[C@H](N)CN(C(=O)[C@@H]1C[C@H]1c1ccccc1)c1ccc(-c2ccc(OC(F)(F)F)cc2)cc1
63 | 35 nM | CC[C@H](C)[C@H](N)CN(C(=O)[C@@H]1C[C@H]1c1ccccc1)c1ccc(-c2ccc(COC)cc2)cc1
64 | 280 nM | CC[C@H](C)[C@H](N)CN(C(=O)[C@@H]1C[C@H]1c1ccccc1)c1ccc(-c2ccc(COC(C)(C)C)cc2)cc1
65 | 1100 nM | CC[C@H](C)[C@H](N)CN(C(=O)[C@@H]1C[C@H]1c1ccccc1)c1ccc(-c2ccc(CO)cc2)cc1
66 | 66 nM | CC[C@H](C)[C@H](N)CN(C(=O)[C@@H]1C[C@H]1c1ccccc1)c1ccc(-c2ccc(CC(=O)OC)cc2)cc1
67 | 110 nM | CC[C@H](C)[C@H](N)CN(C(=O)[C@@H]1C[C@H]1c1ccccc1)c1ccc(-c2ccc(CCC(=O)OC)cc2)cc1
68 | 260 nM | CCOC(=O)c1ccc(-c2ccc(N(C[C@@H](N)[C@@H](C)CC)C(=O)[C@@H]3C[C@H]3c3ccccc3)cc2)cc1
69 | 980 nM | CC[C@H](C)[C@H](N)CN(C(=O)[C@@H]1C[C@H]1c1ccccc1)c1ccc(-c2ccc(C(=O)N(C)C)cc2)cc1
70 | 320 nM | CC[C@H](C)[C@H](N)CN(C(=O)[C@@H]1C[C@H]1c1ccccc1)c1ccc(-c2ccc(N)cc2)cc1
71 | 1200 nM | CC[C@H](C)[C@H](N)CN(C(=O)[C@@H]1C[C@H]1c1ccccc1)c1ccc(-c2ccc(NS(C)(=O)=O)cc2)cc1
72 | 5500 nM | CC[C@H](C)[C@H](N)CN(C(=O)[C@@H]1C[C@H]1c1ccccc1)c1ccc(-c2ccc(NC(C)=O)cc2)cc1
73 | 460 nM | CC[C@H](C)[C@H](N)CN(C(=O)[C@@H]1C[C@H]1c1ccccc1)c1ccc(-c2ccc(CN(C)C)cc2)cc1
74 | 6400 nM | CC[C@H](C)[C@H](N)CN(C(=O)[C@@H]1C[C@H]1c1ccccc1)c1ccc(-c2ccc(CNC)cc2)cc1
75 | > 30000 nM | CC[C@H](C)[C@H](N)CN(C(=O)[C@@H]1C[C@H]1c1ccccc1)c1ccc(-c2ccc(CN)cc2)cc1
76 | 1200 nM | CC[C@H](C)[C@H](N)CN(C(=O)[C@H]1C[C@@H]1c1ccccn1)c1ccc(-c2ccc(COC)cc2)cc1
77 | 15 nM | CC[C@H](C)[C@H](N)CN(C(=O)[C@@H]1C[C@H]1c1ccccn1)c1ccc(-c2ccc(COC)cc2)cc1
78 | 3.5 nM | CC[C@H](C)[C@H](N)CN(C(=O)[C@@H]1C[C@H]1c1ccccn1)c1ccc(-c2ccc(OC(C)C)cc2)cc1
